Test results published in ChEMBL document CHEMBL2413072, “Synthesis and in vitro anticancer studies of novel C-2 arylidene congeners of lantadenes” (2013).

Assays:
Type in all cases: functional
RPMI-8226 [1] = test: Growth inhibition of human RPMI8226 cells assessed as growth inhibition at 10 uM by sulforhodamine B assay; conditions: read-out: GI
HL-60(TB) = test: Growth inhibition of human HL-60(TB) cells assessed as cell growth at 10 uM by sulforhodamine B assay; conditions: read-out: Activity
SN12C = test: Growth inhibition of human SN12C cells assessed as growth inhibition at 10 uM by sulforhodamine B assay; conditions: read-out: GI
NCI-H322M = test: Growth inhibition of human NCI-H322M cells assessed as growth inhibition at 10 uM by sulforhodamine B assay; conditions: read-out: GI
HOP-62 [2] = test: Growth inhibition of human HOP62 cells assessed as cell growth at 10 uM by sulforhodamine B assay; conditions: read-out: Activity
SNB-75 = test: Growth inhibition of human SNB75 cells assessed as cell growth at 10 uM by sulforhodamine B assay; conditions: read-out: Activity
UACC-62 = test: Growth inhibition of human UACC62 cells assessed as growth inhibition at 10 uM by sulforhodamine B assay; conditions: read-out: GI
LOX IMVI = test: Growth inhibition of human LOXIMVI cells assessed as growth inhibition at 10 uM by sulforhodamine B assay; conditions: read-out: GI
HCT-116 [3] = test: Growth inhibition of human HCT116 cells assessed as cell growth at 10 uM by sulforhodamine B assay; conditions: read-out: Activity
OVCAR-4 [4] = test: Growth inhibition of human OVCAR4 cells assessed as cell growth at 10 uM by sulforhodamine B assay; conditions: read-out: Activity
SF-295 [5] = test: Growth inhibition of human SF295 cells assessed as growth inhibition at 10 uM by sulforhodamine B assay; conditions: read-out: GI
HCT-116 [6] = test: Growth inhibition of human HCT116 cells assessed as growth inhibition at 10 uM by sulforhodamine B assay; conditions: read-out: GI
SK-MEL-5 = test: Growth inhibition of human SK-MEL-5 cells assessed as growth inhibition at 10 uM by sulforhodamine B assay; conditions: read-out: GI
[7] = Growth inhibition of human NCI-ADR-RES cells assessed as cell growth at 10 uM by sulforhodamine B assay; conditions: read-out: Activity
A549 = test: Growth inhibition of human A549/ATCC cells assessed as cell growth at 10 uM by sulforhodamine B assay; conditions: read-out: Activity
UACC-257 = test: Growth inhibition of human UACC257 cells assessed as cell growth at 10 uM by sulforhodamine B assay; conditions: read-out: Activity
SK-OV-3 = test: Growth inhibition of human SKOV3 cells assessed as cell growth at 10 uM by sulforhodamine B assay; conditions: read-out: Activity
NCI-H460 = test: Growth inhibition of human NCI-H460 cells assessed as growth inhibition at 10 uM by sulforhodamine B assay; conditions: read-out: GI
SR = test: Growth inhibition of human SR cells assessed as cell growth at 10 uM by sulforhodamine B assay; conditions: read-out: Activity
[8] = Growth inhibition of human HCC2998 cells assessed as cell growth at 10 uM by sulforhodamine B assay; conditions: HCC 2998, read-out: Activity
MOLT-4 = test: Growth inhibition of human MOLT4 cells assessed as growth inhibition at 10 uM by sulforhodamine B assay; conditions: read-out: GI
OVCAR-8 [9] = test: Growth inhibition of human OVCAR8 cells assessed as growth inhibition at 10 uM by sulforhodamine B assay; conditions: read-out: GI
RPMI-8226 [10] = test: Growth inhibition of human RPMI8226 cells assessed as cell growth at 10 uM by sulforhodamine B assay; conditions: read-out: Activity
OVCAR-5 = test: Growth inhibition of human OVCAR5 cells assessed as growth inhibition at 10 uM by sulforhodamine B assay; conditions: read-out: GI
IGROV-1 = test: Growth inhibition of human IGROV1 cells assessed as cell growth at 10 uM by sulforhodamine B assay; conditions: read-out: Activity
SK-MEL-28 = test: Growth inhibition of human SK-MEL-28 cells assessed as cell growth at 10 uM by sulforhodamine B assay; conditions: read-out: Activity
MDA-MB-468 [11] = test: Growth inhibition of human MDA-MB-468 cells assessed as cell growth at 10 uM by sulforhodamine B assay; conditions: read-out: Activity
OVCAR-3 = test: Growth inhibition of human OVCAR3 cells assessed as growth inhibition at 10 uM by sulforhodamine B assay; conditions: read-out: GI
NCI-H522 = test: Growth inhibition of human NCI-H522 cells assessed as cell growth at 10 uM by sulforhodamine B assay; conditions: read-out: Activity
TK-10 = test: Growth inhibition of human TK10 cells assessed as cell growth at 10 uM by sulforhodamine B assay; conditions: read-out: Activity
SF-295 [12] = test: Growth inhibition of human SF295 cells assessed as cell growth at 10 uM by sulforhodamine B assay; conditions: read-out: Activity
SW-620 = test: Growth inhibition of human SW620 cells assessed as cell growth at 10 uM by sulforhodamine B assay; conditions: read-out: Activity
UO-31 = test: Growth inhibition of human UO31 cells assessed as cell growth at 10 uM by sulforhodamine B assay; conditions: read-out: Activity
K562 = test: Growth inhibition of human K562 cells assessed as growth inhibition at 10 uM by sulforhodamine B assay; conditions: read-out: GI
HOP-62 [13] = test: Growth inhibition of human HOP62 cells assessed as growth inhibition at 10 uM by sulforhodamine B assay; conditions: read-out: GI
COLO 205 = test: Growth inhibition of human COLO205 cells assessed as cell growth at 10 uM by sulforhodamine B assay; conditions: read-out: Activity
NCI-H226 = test: Growth inhibition of human NCI-H226 cells assessed as growth inhibition at 10 uM by sulforhodamine B assay; conditions: read-out: GI
MDA-MB-468 [14] = test: Growth inhibition of human MDA-MB-468 cells assessed as growth inhibition at 10 uM by sulforhodamine B assay; conditions: read-out: GI
MDA-MB-435 = test: Growth inhibition of human MDA-MB-435 cells assessed as cell growth at 10 uM by sulforhodamine B assay; conditions: read-out: Activity
OVCAR-8 [15] = test: Growth inhibition of human OVCAR8 cells assessed as cell growth at 10 uM by sulforhodamine B assay; conditions: read-out: Activity
786-0 = test: Growth inhibition of human 786-0 cells assessed as growth inhibition at 10 uM by sulforhodamine B assay; conditions: read-out: GI
A498 = test: Growth inhibition of human A498 cells assessed as cell growth at 10 uM by sulforhodamine B assay; conditions: read-out: Activity
Malme-3M [16] = test: Growth inhibition of human MALME-3M cells assessed as cell growth at 10 uM by sulforhodamine B assay; conditions: read-out: Activity
HCT-15 [17] = test: Growth inhibition of human HCT15 cells assessed as growth inhibition at 10 uM by sulforhodamine B assay; conditions: read-out: GI
ACHN = test: Growth inhibition of human ACHN cells assessed as growth inhibition at 10 uM by sulforhodamine B assay; conditions: read-out: GI
Malme-3M [18] = test: Growth inhibition of human MALME-3M cells assessed as growth inhibition at 10 uM by sulforhodamine B assay; conditions: read-out: GI
OVCAR-4 [19] = test: Growth inhibition of human OVCAR4 cells assessed as growth inhibition at 10 uM by sulforhodamine B assay; conditions: read-out: GI
HCT-15 [20] = test: Growth inhibition of human HCT15 cells assessed as cell growth at 10 uM by sulforhodamine B assay; conditions: read-out: Activity

Structure (SMILES): CC1(C)C[C@@H](O)[C@]2(C(=O)O)CC[C@]3(C)C(=CC[C@@H]4[C@@]5(C)CC[C@H](O)C(C)(C)[C@@H]5CC[C@]43C)[C@@H]2C1
- inhibition of growth at 10 µM (RPMI-8226 [1]): 10.7%
- growth at 10 µM (HL-60(TB)): 82%
- inhibition of growth at 10 µM (SN12C): 16.6%
- inhibition of growth at 10 µM (NCI-H322M): < 10%
- growth at 10 µM (HOP-62 [2]): 98.9%
- growth at 10 µM (SNB-75): 97.7%
- inhibition of growth at 10 µM (UACC-62): 11.8%
- inhibition of growth at 10 µM (LOX IMVI): 11.1%
- growth at 10 µM (HCT-116 [3]): 82.7%
- growth at 10 µM (OVCAR-4 [4]): 96%
- inhibition of growth at 10 µM (SF-295 [5]): < 10%
- inhibition of growth at 10 µM (HCT-116 [6]): 17.3%
- inhibition of growth at 10 µM (SK-MEL-5): < 10%
- growth at 10 µM [7]: 104%
- growth at 10 µM (A549): 87.5%
- growth at 10 µM (UACC-257): 107%
- growth at 10 µM (SK-OV-3): 101%
- inhibition of growth at 10 µM (NCI-H460): < 10%
- growth at 10 µM (SR): 78%
- growth at 10 µM [8]: 109%
- inhibition of growth at 10 µM (MOLT-4): 21.7%
- inhibition of growth at 10 µM (OVCAR-8 [9]): < 10%
- growth at 10 µM (RPMI-8226 [10]): 89.3%
- inhibition of growth at 10 µM (OVCAR-5): < 10%
- growth at 10 µM (IGROV-1): 97.6%
- growth at 10 µM (SK-MEL-28): 95.6%
- growth at 10 µM (MDA-MB-468 [11]): 111%
- inhibition of growth at 10 µM (OVCAR-3): < 10%
- growth at 10 µM (NCI-H522): 95.3%
- growth at 10 µM (TK-10): 99.7%
- growth at 10 µM (SF-295 [12]): 153%
- growth at 10 µM (SW-620): 109%
- growth at 10 µM (UO-31): 85.5%
- inhibition of growth at 10 µM (K562): < 10%
- inhibition of growth at 10 µM (HOP-62 [13]): < 10%
- growth at 10 µM (COLO 205): 109%
- inhibition of growth at 10 µM (NCI-H226): < 10%
- inhibition of growth at 10 µM (MDA-MB-468 [14]): 88.8%
- growth at 10 µM (MDA-MB-435): 116%
- growth at 10 µM (OVCAR-8 [15]): 93.7%
- inhibition of growth at 10 µM (786-0): 13.8%
- growth at 10 µM (A498): 102%
- growth at 10 µM (Malme-3M [16]): 102%
- inhibition of growth at 10 µM (HCT-15 [17]): < 10%
- inhibition of growth at 10 µM (ACHN): < 10%
- inhibition of growth at 10 µM (Malme-3M [18]): < 10%
- inhibition of growth at 10 µM (OVCAR-4 [19]): < 10%
- growth at 10 µM (HCT-15 [20]): 96.5%
